“Also recorded” adds a separate entry of the source.
Key:
[1] = system: plasma renin activity (PRA); experiment: Change in plasma renin activity (PRA) in the bilateral renal artery ligated rat; assay type: in vivo, rat (Sprague-Dawley); details: 1 mg/kg I.V.; for prevention of PRA increases / inhibition of renin release (in words): 30 and 60 minutes; for CHANGE IN PRA: ^+ different from vehicle, p < .05
Procedure: Adenosine Al receptor stimulation will inhibit the release of renin from the kidney. A stimulus for the release of renin is renal ischemia. The ability of the compounds of the present invention to prevent an increase in PRA following renal ischemia was tested in rats with both renal arteries ligated. Sprague-Dawley rats were anesthetized with ether and the renal arteries were ligated. Three to five hours after anesthesia, arterial blood was sampled and compounds I and II were administered in polyethylene glycol at 1 mg/kg I.V. At 30 and 60 minutes after administration, arterial blood was sampled for PRA measurement by the method of Sealy, J. E. et al., Cardiovasc. Med. 2:1079, 1977.

hypertensive models = details: Federation Proceedings 44:879 & 1643, 1985; cited from earlier work
mice [2] = experiment: Behavioral toxicity at various times in mice; assay type: in vivo; for MOTOR DEPRESSION: key: +: toxic symptom observed; +*: toxic symptom observed; *2/7; for PTOSIS: key: +: toxic symptom observed; +*: toxic symptom observed; *2/7; for RESPIRATORY DEPRESSION: key: +: toxic symptom observed; +*: toxic symptom observed; *2/7; for loss of righting reflex: key: +: toxic symptom observed; +*: toxic symptom observed; *2/7
Procedure: The mice had previously been trained to remain on a rotating rod. After dosing, the percent of mice unable to remain on the rotating rod was determined. […] The mice were also observed at various time intervals for behavioral signs of toxicity.

[3] = system: adenosine Al receptor in the granular juxtaglomerular cells of the kidney; details: Federation Proceedings 44:879 & 1643, 1985; cited from earlier work
mice [4] = experiment: Ataxia on rotating rod in mice; assay type: in vivo; details: ip, 0.5 or 3 hours
Procedure: Adenosine analogs tend to produce sedation and central nervous system depression which have prevented their therapeutic utility. The compounds of the invention, at doses which lower arterial pressure in the SHR, show no evidence of CNS depression. The ataxia produced by compounds of the present invention was measured in mice by injecting the compounds IP at doses of 32, 56, or 75 mg/kg in an aqueous suspension, n=7 per dose. The mice had previously been trained to remain on a rotating rod. After dosing, the percent of mice unable to remain on the rotating rod was determined. […] The mice were also observed at various time intervals for behavioral signs of toxicity.

[5] = system: spontaneously hypertensive rats (SHR); experiment: Effects on MAP and HR in conscious spontaneously hypertensive rats (SHR), I.V. or intragastric; assay type: in vivo, rat
Procedure: The effects of compounds I and II were tested intravenously or intragastrically in conscious spontaneously hypertensive rats (SHR). The rats were anesthetized with ether and the left carotid artery and right jugular vein were cannulated with polyethylene tubing. The rats were allowed three to five hours recovery from anesthesia for the I.V. studies and 12 to 18 hours for the oral studies. Mean arterial pressure (MAP, in mm/Hg) and heart rate (HR, beats/min.) were measured from the artery; intravenous administration of compounds was performed by injection into the vein. Oral administration was performed by gastric intubation. Compounds were dissolved in DMSO for I.V. studies and injected in volumes of 100 μl/kg or less (N=5 per compound). Doses were 3 to 1,000 μg/kg. Compounds were dissolved in polyethylene glycol for oral administration and injected in volumes of 1 ml/kg at a dose of 20 mg/kg/day for three days (N=3 to 6 per compound).
The resting MAP and HR for the SHR ranged between 160-200 mm Hg and 330/350 b/min., respectively.
Thus, the effects of the three compounds on MAP and HR were indistinguishable both by I.V. and oral administration.

[6] = Solubility of the separated diastereomers; assay type: physicochemical; details: for solubility in MeOH (in words): S isomer and R isomer compared
[7] = SHR, 20 mg/kg/day intragastric, day 2 of oral administration, N=3 to 6

SMILES | prevention of PRA increases / inhibition of renin release (in words) [1] | toxicity (in words) (mice [2]; 18-20 hours, 75 mg/kg ip) | MOTOR DEPRESSION (mice [2]; 0.5 hr, 75 mg/kg ip) | PTOSIS (mice [2]; 0.5 hr, 75 mg/kg ip) | RESPIRATORY DEPRESSION (mice [2]; 0.5 hr, 75 mg/kg ip) | MOTOR DEPRESSION (mice [2]; 3 hr, 75 mg/kg ip) | PTOSIS (mice [2]; 3 hr, 75 mg/kg ip) | RESPIRATORY DEPRESSION (mice [2]; 3 hr, 75 mg/kg ip) | solubility in MeOH (in words) [6] | further results
OC[C@H]1O[C@@H](n2cnc3c(NCC(O)COc4cccc5ccccc45)ncnc32)[C@H](O)[C@@H]1O (mixture of isomers) [Compound I, N(6)-[2-hydroxy-3-(1-naphthyloxy)propyl]-adenosine] | prevented to the same extent | still producing several of the toxic symptoms | + | + | + | + | + | + |  | arterial blood pressure and heart rate (in words) (hypertensive models): reducing arterial blood pressure and heart rate in hypertensive models; FLACCIDITY, animals affected (footnote) (mice [2]; 18-20 hr, 75 mg/kg ip): 2/7; MOTOR DEPRESSION (mice [2]; 18-20 hr, 75 mg/kg ip): +; PTOSIS (mice [2]; 18-20 hr, 75 mg/kg ip): +; RESPIRATORY DEPRESSION (mice [2]; 18-20 hr, 75 mg/kg ip): +; toxicity (in words) (mice [2]; 3 hours, 75 mg/kg ip): flaccidity and loss of righting reflex; FLACCIDITY (mice [2]; 3 hr, 75 mg/kg ip): +; LOSS OF RIGHTING REFLEX (mice [2]; 3 hr, 75 mg/kg ip): +; binding to the adenosine Al receptor, inhibition of renin release (in words) [3]: binds to the adenosine Al receptor in the granular juxtaglomerular cells of the kidney to inhibit release of renin into the plasma
OC[C@H]1O[C@@H](n2cnc3c(NC[C@@H](O)COc4cccc5ccccc45)ncnc32)[C@H](O)[C@@H]1O [Compound II, N^6-[2R-hydroxy-3-(1-naphthalenyloxy)propyl]-adenosine] | prevented to the same extent | no toxicity was observed | + | + | + | + | + | + | more soluble in MeOH | CHANGE IN PRA ([1]; 30 minutes after dosing): -6.6 ngAI/ml/hr; CHANGE IN PRA ([1]; 60 minutes after dosing): -6.3 ngAI/ml/hr; ataxia / motor toxicity (in words) (mice [4]): less ataxia at 0.5 or 3 hours as compared to compound I; also recorded: less motor toxicity than compound I; ED (HR decrease by 100 b/min) ([5]; Rattus norvegicus, iv, conscious SHR, I.V. in DMSO, N=5 per compound, read-out: IV DOSE TO DECREASE HR by 100 b/min): 0.031 ± 0.0014 mg/kg; ED (MAP decrease by 40 mmHg) ([5]; Rattus norvegicus, iv, conscious SHR, I.V. in DMSO, N=5 per compound, read-out: IV DOSE TO DECREASE MAP by 40 mmHg): 0.033 ± 0.0012 mg/kg; MAXIMUM DECREASE AT 20 MG/KG ig: HR [5, 7]: 177 ± 19 b/min; MAXIMUM DECREASE AT 20 MG/KG ig: MAP [5, 7]: 50 ± 14 mmHg; solubility (in words) ([6]; R diastereomer, solvent not stated): different solubility; overall toxicity compared with compound I (in words) (mice [2]; mice, ip, ataxia and behavioral toxicity): substantially less toxic than compound I; also recorded: unexpectedly less toxic than compound I, both with regard to ataxia and behavioral toxicity; also recorded: less central nervous system toxicity than the racemic mixture
OC[C@H]1O[C@@H](n2cnc3c(NC[C@H](O)COc4cccc5ccccc45)ncnc32)[C@H](O)[C@@H]1O [S isomer] |  |  |  |  |  |  |  |  | less soluble in MeOH | 

— patent US5030624A, “R-diastereomer of an N^6 -[(2-hydroxypropyl)aryl]adenosine and its medicinal uses” (G. D. Searle & Co., priority 1988, dated 1991)
